# Test results from PMC9834611 (Pharmacology Research & Perspectives, 2023).
# Like-named read-outs stand apart in the source and are kept apart here.
# How the values were obtained:
# [1] = Human PBPK model Monte Carlo simulation and model parameters
# ABCB1 [2] = assay: ABCB1 transport Vmax optimized to in vivo canine PK data; settings: dog and human models
# From the text: The transfer of drugs at the BBB is unique as the mass transfer out of the vascular space surrounding the brain tissue is hindered by a permeability barrier. […] Coupling the ABCB1 transport equations as expressed above with permeability‐limited modeling equations from Choi et al.,[23] the following equations are proposed where Equation ( 4 ) describes the amount of drug within the brain tissue and Equation ( 5 ) describes the amount of drug in the vascular space surrounding the tissue: (4) VCNS*dCCNS,T/dt=PSA×CA−CCNS,V−sfABCB1,CNS×VCNS×VMAXABCB1×CCNS,V/KMABCB1+CCNS,V (5) VBB*dCBB/dt=QCNS*CA−CV−PSA×CA−CV,CNA+sfCNS×VCNS×VMAXABCB1×CCNS,V/KMABCB1+CCNS,V where VCNS is the volume of the brain tissue, VBB is the volume consisting of brain blood, CCNS,T is the concentration of drug in the brain tissue, PSA is the permeability surface area product, sfABCB1,CNS is the relative ABCB1 expression in brain tissue, and CBB is the concentration of drug in the brain blood. VCNA and VBB were set to 97% and 3% of total brain volume, respectively.[37] […] The parameter optimization method was conducted as described previously with nonlinear least squares regression. […] The corresponding Vmax,ABCB1 value was optimized to in vivo canine PK data. […]
# [3] = Canine PBPK model Monte Carlo simulation and model parameters; settings: dog model
# ABCB1 [4] = assay: ABCB1‐driven transport kinetics fit to wild‐type mouse brain tissue PK data
# From the text: The rate of change in the amount of drug in tissues with ABCB1 expression is as follows: (3) dAT/dt=QC×CA−CVT−FABCB1,T×Vmax,ABCB1×Cv/Km+Cv In which ABCB1‐mediated efflux of drug is characterized by Michaelis–Menten saturable kinetics, where FABCB1,T is the scaling factor for the relative expression of ABCB1 transport protein in relevant tissues, Vmax,ABCB1 is the maximum velocity of ABCB1 transport out of the tissue compartment, and Km is the associated Michaelis–Menten constant. Scaling factors, FABCB1,T , were acquired from Systems Pharmacology for ABCB1 relative tissue expression as previously reported.[36]
# The transfer of drugs at the BBB is unique as the mass transfer out of the vascular space surrounding the brain tissue is hindered by a permeability barrier. […] Coupling the ABCB1 transport equations as expressed above with permeability‐limited modeling equations from Choi et al.,[23] the following equations are proposed where Equation ( 4 ) describes the amount of drug within the brain tissue and Equation ( 5 ) describes the amount of drug in the vascular space surrounding the tissue: (4) VCNS*dCCNS,T/dt=PSA×CA−CCNS,V−sfABCB1,CNS×VCNS×VMAXABCB1×CCNS,V/KMABCB1+CCNS,V (5) VBB*dCBB/dt=QCNS*CA−CV−PSA×CA−CV,CNA+sfCNS×VCNS×VMAXABCB1×CCNS,V/KMABCB1+CCNS,V where VCNS is the volume of the brain tissue, VBB is the volume consisting of brain blood, CCNS,T is the concentration of drug in the brain tissue, PSA is the permeability surface area product, sfABCB1,CNS is the relative ABCB1 expression in brain tissue, and CBB is the concentration of drug in the brain blood. VCNA and VBB were set to 97% and 3% of total brain volume, respectively.[37] […] The parameter optimization method was conducted as described previously with nonlinear least squares regression. […] The corresponding Vmax,ABCB1 value was optimized to in vivo canine PK data. […] Canine model parameter values were thus fit to the patients without concurrent treatment of omeprazole to minimize the influence of potential drug–drug interactions.
# serum proteins = settings: cited from earlier work
# dog liver microsomes = settings: dog and human models, fit of digitized data, cited from earlier work
# human ABCB1 = system: human ABCB1; set-up: method as in PMID 17142983; settings: dog and human models, cited from earlier work
# [5] = VBL PK study in dogs (clinical trial, serum); settings: dog, iv, 2.5 mg/m^2 IV bolus, observed; for AUC(0-t): 2.5 mg/m2, AUCt, dogs, 0 to 24 h; for half-life: 2.5 mg/m2, t1/2, dogs
# [6] = cited from earlier work; for t1/2: Obs
# [7] = system: plasma proteins, primarily alpha‐1 acid glycoprotein; settings: cited from earlier work
# [8] = bone marrow, optimized to mouse mdr1a/b (−/−) data
# [9] = optimized to mouse mdr1a/b (−/−) data
# [10] = concomitant prednisone/omeprazole/diphenhydramine (POD)
structure (smiles),measurement,setting,value
"CC[C@]1(O)C[C@@H]2CN(CCc3c([nH]c4ccccc34)[C@@](C(=O)OC)(c3cc4c(cc3OC)N(C)[C@H]3[C@@](O)(C(=O)OC)[C@H](OC(C)=O)[C@]5(CC)C=CCN6CC[C@]43[C@@H]65)C2)C1 [VBL, Vinblastine]",Partition coefficient PCblood,[1],1.0
same,Partition coefficient PCBM,[1]; [8],1.0
same,Partition coefficient PCCNS,[1]; [9],1.21
same,Partition coefficient PCGut,[1]; [9],1.08
same,Partition coefficient PCKidney,[1]; [9],3.73
same,Partition coefficient PCLiver,[1]; [9],2.26
same,VmABCB1,ABCB1 [2]; optimized to in vivo canine PK data,64.54 nmol/L/h
same,Vmbil (biliary transport Vmax),ABCB1 [2]; set equivalent to ABCB1 value,64.54 nmol/L/h
same,Partition coefficient PCblood,[3],1.0
same,Partition coefficient PCBM,[3]; [8],1.0
same,Partition coefficient PCCNS,[3]; [9],1.21
same,Partition coefficient PCGut,[3]; [9],1.08
same,Partition coefficient PCKidney,[3]; [9],3.73
same,Partition coefficient PCLiver,[3]; [9],2.26
same,Vmbil (biliary transport Vmax),"ABCB1 [4]; WT mouse, set equivalent to ABCB1 value",928.8 nmol/L/h
same,"Vmax, ABCB1‐driven transport",ABCB1 [4]; fit to wild‐type mouse brain tissue PK data,928.8 nM/h
same,KmABCB1,"ABCB1 [4]; mouse, optimized parameter",6.41 nmol/L
same,VmABCB1,"ABCB1 [4]; mouse, optimized parameter",928.8 nmol/L/h
same,bound to serum proteins,serum proteins; dog plasma,≤ 75%
same,Protein binding (single value),serum proteins; value used in dog model,75%
same,Protein binding (single value),serum proteins; value used in human model,75%
same,Protein binding (single value),serum proteins; value used in mouse model,75%
same,Vmmet (metabolism Vmax),dog liver microsomes; extrapolated using 55 mg protein/g liver,189.6 µmol/L/h
same,Km,dog liver microsomes; read-out: Kmmet (metabolism Km),9.53 µM
same,KmABCB1,human ABCB1; based on ATPase activity,5760 nmol/L
same,Km,"human ABCB1; set equivalent to ABCB1 value, read-out: Kmbil (biliary transport Km)",5.76 µM
same,AUC(0-t),[5]; concomitant prednisolone only,0.186 µM·h
same,AUC(0-t),[5]; [10],0.0477 µM·h
same,half-life,[5]; all patients regardless of concomitant treatment,18.6 h
same,half-life,[5]; concomitant prednisolone only,15.7 h
same,half-life,[5]; [10],5.15 h
same,t1/2,[6]; Study 1: IV bolus 0.23 ± 0.08 mg/kg,10.99 h
same,AUCt,"[6]; Study 2: non‐small cell lung cancer, IV bolus 0.083 ± 0.009 mg/kg prior to Cisplatin infusion, n 8, Obs",163 ± 62 h x nM
same,t1/2,[6]; Study 3: IV bolus 0.2 mg/kg,19.7 h
same,AUCt,"[6]; Study 3: metastatic hypernephroma, IV bolus 0.2 mg/kg, n 1, Obs",141 h x nM
same,percentage of drug bound to plasma proteins,[7],48–99%
same,Protein binding (range),[7]; value used in dog model,48–99%
same,Protein binding (range),[7]; value used in human model,48–99%
same,Protein binding (range),[7]; value used in mouse model,48–99%
